# From paper PMC6934184, “Selective DNA-PKcs inhibition extends the therapeutic index of localized radiotherapy and chemotherapy” (The Journal of Clinical Investigation, 2019)
# Biological target: T1, MAP3K11 (MLK3) (Homo sapiens, UniProt Q16584)
# T1 construct: purchased Thermo Fisher Scientific (Life Technologies) SelectScreen
# Assay: SelectScreen LanthaScreen
# Format: binding
# Details: 1 µM
# In short: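 NU5455 was profiled across the SelectScreen Broad panel of kinase activity and binding assays. Z'LYTE reactions such as CSF1R ran at apparent Km ATP, while the Adapta CAMK1 assay used ATP listed as 10. Values are given as percent.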
# T1 sequence (Q16584 whole entry): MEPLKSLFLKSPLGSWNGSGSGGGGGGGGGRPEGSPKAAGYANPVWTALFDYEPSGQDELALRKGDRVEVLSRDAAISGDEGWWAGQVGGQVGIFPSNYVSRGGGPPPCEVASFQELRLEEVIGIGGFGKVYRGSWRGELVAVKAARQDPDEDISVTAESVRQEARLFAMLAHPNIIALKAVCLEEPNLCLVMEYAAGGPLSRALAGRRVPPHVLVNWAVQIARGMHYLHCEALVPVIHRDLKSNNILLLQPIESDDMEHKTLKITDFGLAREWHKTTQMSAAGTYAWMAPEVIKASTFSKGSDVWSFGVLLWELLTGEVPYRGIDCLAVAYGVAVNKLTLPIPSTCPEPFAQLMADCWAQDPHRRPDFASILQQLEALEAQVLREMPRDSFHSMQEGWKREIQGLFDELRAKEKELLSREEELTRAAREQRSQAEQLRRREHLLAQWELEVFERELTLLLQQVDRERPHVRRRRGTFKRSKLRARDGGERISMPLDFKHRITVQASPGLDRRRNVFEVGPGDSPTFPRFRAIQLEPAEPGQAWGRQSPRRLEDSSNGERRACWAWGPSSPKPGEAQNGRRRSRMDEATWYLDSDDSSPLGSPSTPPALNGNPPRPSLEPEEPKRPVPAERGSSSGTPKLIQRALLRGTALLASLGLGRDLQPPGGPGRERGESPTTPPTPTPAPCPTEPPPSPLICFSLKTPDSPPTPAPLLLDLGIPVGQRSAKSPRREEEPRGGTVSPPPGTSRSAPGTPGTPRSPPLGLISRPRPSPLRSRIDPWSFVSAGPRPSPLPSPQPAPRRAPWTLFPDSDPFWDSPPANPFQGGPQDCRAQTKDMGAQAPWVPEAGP
smiles,measurement,value
CN(C(=O)CN1CCOCC1)c1ccc2sc3c(-c4cccc5c(=O)cc(N6CC7CCC(C6)O7)oc45)cccc3c2c1 [NU5455],% displacement,4.0%
